“And” between values parts separate entries of the source, which are not always exact repeats. Equal values may be shown once.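 96-well plates; 48 h exposure; 5 concentrations. Endpoints by linear interpolation between flanking doses. Not reached: highest tested concentration assigned. Here, GI50 denotes the concentration required for 50% inhibition of growth. TGI marks complete inhibition of growth.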

Common to all, as to assay: NCI anticancer screen, dose series, 48 h
The subject of test [1] is NCI-H460 lung.
For test [2], the system named is OVCAR-3 ovarian.
In test [3] the test system is BT-549 breast.
In test [4] the test system is MCF7 breast.
The test system of test [5] is SK-OV-3 ovarian.
In test [6] the test system is CAKI-1 renal.
Test [7] concerns OVCAR-8 ovarian.
In test [8] the test system is T-47D breast.
In test [9] the test system is UACC-257 melanoma.
The test system of test [10] is K-562 leukemia.

As to `CN1CCN(C2=C(Cl)C(=O)c3ccccc3C2=O)CC1`, the GI50 in test [1] was 2.95 µM; in test [2] it was 1.39 µM; in [3] it was 1.97 µM; in test [4] it was 1.45 µM; in test [5] it was 9.11 µM; in [6] it was 1.77 µM. The GI50 in test [7] was 1.74 µM; in test [8], 0.789 µM; in [9] it was 1.73 µM; in [10] it was 1.65 µM. The TGI was found to be 9.47 µM in [1]; 2.69 µM in test [2]; 4.75 µM in test [3]; 3.16 µM in [4]; 22.4 µM in test [5]; 3.39 µM in test [6]. Besides, the TGI worked out at 3.59 µM in [7], 2.73 µM in [8], 3.2 µM in [9] and 7.57 µM in test [10].

For `COc1ccc(C2=Nn3c(nnc3-c3ccc(F)c(Cl)c3)SC2)cc1`, the GI50 in [1], in test [2], in [3], in [4], in test [5] and in test [6] was > 100 µM throughout. Also, the GI50 in [7], in test [8], in test [9] and in [10] was > 100 µM throughout. The TGI in test [1], in test [2], in test [3], in [4], in test [5] and in [6] was > 100 µM throughout. Also, the TGI in [7], in test [8], in [9] and in [10] was > 100 µM throughout.

As for `Nc1nc(N)nc(CCCCc2nc(N)nc(N)n2)n1`, the TGI in [1], in [2], in [3], in [4], in test [5] and in test [6] was > 100 µM throughout. Besides, the TGI in test [7], in [8], in [9] and in test [10] was > 100 µM each time.

`CC(NCCN(C)C)C1CCC2C3CCc4cc(O)ccc4C3CCC12C` (stereo not given): the TGI is 4.68 µM in test [1]; 4.37 µM in test [2]; 31.4 µM in [3]; 11.5 µM in test [4]; 15.9 µM in [5]; 4.32 µM in test [6]. The TGI in test [7] amounted to 11 µM; in [8], 5.29 µM; in test [9], 3.83 µM; in test [10], 4.81 µM.

Take `COc1ccc2c(=O)c(-c3cc(OC)c(OC)cc3OC)coc2c1`: the TGI in test [1] was > 100 µM; in test [2] it was 15.3 µM; in [3], > 100 µM; in test [4] it was > 100 µM; in test [5], > 44.1 µM; in test [6] it was > 100 µM. Besides, the TGI in test [7], in [8], in test [9] and in test [10] was > 100 µM throughout.

For the compound `N#CC1=C(N)NC(=O)C(C#N)C12Nc1ccccc1S2` (stereo not given), the GI50 is > 100 µM in [1]; 32.6 µM in [2]; 69.9 µM in test [3]; 32.7 µM in test [4]; 66.6 µM in [5]; > 100 µM in test [6]. In addition, the GI50 was 91.3 µM in test [7], > 100 µM in test [8], 39.9 µM in [9] and 48.8 µM in test [10]. The TGI in test [1], in test [2], in test [3], in test [4], in test [5] and in test [6] was > 100 µM in each case. Further, the TGI in test [7], in test [8], in test [9] and in test [10] was > 100 µM in each case.

Take `O=C(O)CCC(O)=C1S(=O)(=O)OCCOS1(=O)=O`: the TGI in [1], in [2], in [3], in [4], in test [5] and in [6] was > 100 µM each time. The TGI in test [7], in test [8], in test [9] and in [10] was > 100 µM in each case.

Regarding `COc1ccc2nc3cc(Cl)ccc3c(Nc3ccccc3-c3ccccc3Nc3c4ccc(Cl)cc4nc4ccc(OC)cc34)c2c1`, the TGI is 98.9 µM in [1]; > 78.4 µM in test [2]; 42.2 µM in test [3]; > 100 µM in test [4]; > 100 µM in test [5]; > 88.1 µM in test [6]. In addition, the TGI in test [7] is > 100 µM; in test [8], 75.4 µM; in test [9] it was > 46.4 µM; in test [10] it was 59.3 µM.

As to `Nc1c(C(=O)c2cccc(-c3cccnc3)c2)cnn1-c1ccc(F)cc1`, the GI50 in [1] was > 25 µM; in test [2], > 25 µM; in test [3], > 13.2 µM; in test [4], > 25 µM; in [5], > 25 µM; in test [6], > 25 µM. The GI50 in test [7] is > 13.9 µM; in test [8], > 25 µM; in test [9] it was > 25 µM; in [10] it was > 25 µM. Besides, the TGI in test [1], in test [2], in [3], in test [4], in [5] and in [6] was > 25 µM each time. For the same compound, the TGI in test [7], in test [8], in [9] and in [10] was > 25 µM each time.

On to `COc1ccc([N+](=O)[O-])c2c(NCCCN(C)C)c(C)c(C)nc12`, for which the TGI in test [1], in test [2], in test [3], in [4], in test [5] and in [6] was > 100 µM each time. Also, the TGI in test [7], in test [8], in [9] and in [10] was > 100 µM throughout.

In the case of `COc1cc(C[C@H]2COC(=O)[C@]2(O)Cc2ccc(OCc3ccccc3)c(OC)c2)ccc1OCc1ccccc1`, the GI50 in test [1] is 9.77 µM; in [2], > 100 µM; in test [3] it was 28.1 µM; in test [4] it was 8.17 µM; in [5], > 100 µM; in test [6], 19.4 µM. Moreover, the GI50 in [7] is 12.3 µM; in test [8], 12.1 µM; in test [9], 16 µM; in test [10], 62.3 µM. In addition, the TGI in test [1], in test [2], in [3], in test [4], in test [5] and in test [6] was > 100 µM throughout. Also, the TGI in [7], in test [8], in test [9] and in test [10] was > 100 µM throughout.

`CC(=O)CC[N+](C)(C)C`: the TGI in [1] is > 90 µM; in test [2], 40.7 µM; in test [3] it was 62.6 µM; in test [4], 64.8 µM; in [5], 51.9 µM; in test [6], 3.83 µM. In addition, the TGI worked out at 67.5 µM in test [7], 52.7 µM in test [8], 54.6 µM in test [9] and 13.5 µM in test [10].

`CCC/C=C/C=C/C(=O)OC1/C(=C/C(=O)OC)CC2CC(C(C)O)OC(=O)CC(O)CC3CC(OC(C)=O)C(C)(C)C(O)(CC4C/C(=C/C(=O)OC)CC(/C=C/C(C)(C)C1(O)O2)O4)O3` (stereo not given): the GI50 in [1] is 9.82 µM and 2.81 µM and > 12.5 µM; in [2], > 10.9 µM and 8.33 µM and > 12.5 µM; in test [3], > 12.5 µM; in test [4], > 10.9 µM and 5.88 µM and > 12.5 µM; in [5] it was > 10.9 µM and 8.51 µM and > 12.5 µM; in [6], 2.79 µM and 4.05 µM and > 12.5 µM. Moreover, the GI50 in [7] was > 10.9 µM and 7.33 µM and > 12.5 µM; in [8] it was > 12.5 µM; in [9], 5.13 µM and 8.15 µM and > 12.5 µM; in test [10], 8.57 µM and 3.77 µM and > 12.5 µM. For the same compound, the TGI is 10.9 µM and 11 µM and > 12.5 µM in [1]; > 10.9 µM and 11 µM and > 12.5 µM in test [2]; 11 µM and > 12.5 µM in test [3]; > 10.9 µM and 11 µM and > 12.5 µM in [4]; > 10.9 µM and 11 µM and > 12.5 µM in test [5]; 10.9 µM and 11 µM and > 12.5 µM in [6]. Moreover, the TGI in [7] is > 10.9 µM and 11 µM and > 12.5 µM; in [8], 11 µM and > 12.5 µM; in test [9], 6.42 µM and 11 µM and > 12.5 µM; in [10], 10.9 µM and 11 µM and > 12.5 µM.

In the case of `O=[N+]([O-])c1ccccc1/C=N\NC(=S)N/N=C/c1ccccc1[N+](=O)[O-]`, the GI50 in test [1] was 3.64 µM; in test [2] it was 1.95 µM; in [3], 39.6 µM; in [4], 3.12 µM; in test [5] it was 6.07 µM; in test [6], 3.46 µM. For the same compound, the GI50 in test [7] is 11.9 µM; in [8] it was 4.93 µM; in test [9], 10.3 µM; in test [10] it was 3.43 µM. For the same compound, the TGI was > 100 µM in test [1]; 4.72 µM in [2]; > 100 µM in test [3]; > 100 µM in test [4]; > 100 µM in test [5]; > 100 µM in test [6]. Moreover, the TGI in test [7], in [8], in [9] and in [10] was > 100 µM in each case.

The record behind these values is PubChem BioAssay (NCI).
